# Laboratory results reported in paper PMC11597518, “Pharmacometabolomics Approach to Explore Pharmacokinetic Variation and Clinical Characteristics of a Single Dose of Desvenlafaxine in Healthy Volunteers” (Pharmaceutics, 2024).
# Several values for one entry are separate records, joined by “and”; a condition that tells them apart may be missing. Equal values may be shown once. Read-outs that look alike come from different tables or passages of the source.
# Assays:
# [1] = cited from earlier work
# [2] = design: method as in doi:10.4172/jbb.1000130; details: cited from earlier work
# [3] = test system: muscarinic–cholinergic receptors; design: method as in PMID 20694066; details: cited from earlier work
# [4] = design: method as in doi:10.4172/jbb.1000130; details: cited from earlier work; remark: listed apart in the source
# [5] = test system: α1-adrenergic receptors; design: method as in PMID 20694066; details: cited from earlier work
# [6] = test system: monoamine oxidase; design: method as in PMID 20694066; details: cited from earlier work
# [7] = Single-dose (Pristiq 100 mg, oral) pharmacokinetics in healthy volunteers, plasma LC-MS/MS, non-compartmental; assay type: in vivo, human
# Text: The present study was nested in a single-dose, open-label, randomized, pharmaco-bioequivalence study performed under biosafety and ethical standards. The data used were derived from 35 healthy volunteers who received the reference drug (Pristiq®, by Pfizer, Newbridge–Ireland) and who were selected for the study after assessment of their health status via clinical evaluation and a comprehensive set of laboratory tests. The same parameters were used to monitor adverse events post study.
# The analytical method was validated according to the respective resolution of the Agência Nacional de Vigilância Sanitária [Brazilian Public Health Surveillance Agency] [9]. The study used an LC-MS/MS system to verify quantification and calculate pharmacokinetic parameters and performed chromatographic separations in an LC-20AD analytical pump (Shimadzu-Kyoto, Japan) using a SIL-20A HT autosampler (Shimadzu-Kyoto, Japan), coupled with mass spectrometry analyses using a Quattro Micro (Micromass, Newcastle, UK) mass spectrometer equipped with an electrospray ionization (ESI) source. […] was detected via a multiple reaction monitoring (MRM) transition of 264.33 > 58.15, and orphenadrine was detected via an MRM transition of 270.32 > 181.26. Data was acquired using MassLynx 4.1 (Waters, Newcastle, UK). More information on the validation method can be found in the Supplementary Materials, including chromatograms for the selectivity assay (Figure S1). Pharmacokinetic parameters were calculated employing a non-compartmental statistic using WinNonLin 8.3 software (Pharsight, New Jersey, USA).
# Volunteers and Study Design
# The study started with 48 enrolled participants. Of these, 13 participants desisted after drug administration. Of the 35 remaining participants, 23 different adverse events were reported for some of them.
# The reference formulation was desvenlafaxine succinate monohydrate controlled-release coated tablet of 100 mg Pristiq® with administration of one single-dose tablet. The volunteers were hospitalized at 7:30 p.m. and had supper before 9:30 p.m. After an overnight fast, they received (at ∼5:40 a.m.) a tablet of 100 mg desvenlafaxine succinate monohydrate with 200 mL of water. The volunt eers then fasted for 4 h, after which period a standard lunch was served. A specific high-calorie diet was administered thirty minutes before taking the medication; Lunch: 4 hours after taking the medication; Afternoon snack:
# 8 hours after taking the medication; Dinner: 10 hours after taking the medication.
# It was necessary to observe the ethical principle of non-maleficence due to the adverse event of nausea being considered very common (≥ 10%). the antiemetic (Dramin® B6 DL - IV - 30 mg / 100 mL saline / 30 minutes) was administered twice: the first dose immediately after administration of the study medication and a second dose 5:00 hours after administration of the study medication.
# At 2 h before and 6, 8 and 12 h after the dose administration, vital signs were checked.
# The recruitment period was 24 h, during which period, blood samples (8 mL) from a suitable antecubital vein were collected, post-dosing via an indwelling catheter, into […]
# samples were centrifuged at ∼2,000×g for 10 min at 4°C, and the plasma was stored at - 70°C until assayed. Samples were handled under yellow light, due to the photosensitivity […]
# Determination of Pharmacokinetic Profile by LC-MS/MS
# Chromatographic separations were performed in an LC-20AD analytical pump and SIL-20A HT autosampler from Shimadzu. The stationary phase employed a Luna AgilLuna Agilent Polaris 5 µm C18-A 50 x 2,0mm column (Phenomenex). The mobile phase consisted of a solution of 10 mM ammonium acetate with 0.1% formic acid (Phase A) and acetonitrile with 0.1% formic acid (Phase B), flowing at 0.3 mL/min in proportion (2:8). The autosampler was maintained at 22°C, with an injection volume of 10 µl and 2.2- […]
# Mass spectrometry was conducted on a Quattro Micro mass spectrometer from […]
# [8] = Adverse events monitored by clinical evaluation and laboratory tests after single dose; assay type: in vivo, human
# Text: The present study was nested in a single-dose, open-label, randomized, pharmaco-bioequivalence study performed under biosafety and ethical standards. The data used were derived from 35 healthy volunteers who received the reference drug ([…]®, by Pfizer, Newbridge-Ireland) and who were selected for the study after assessment of their health status via clinical evaluation and a comprehensive set of laboratory tests. The same parameters were used to monitor adverse events post study. At the beginning and end of the study, all participants underwent clinical evaluation and laboratory tests using the reference values proposed by […] or without clinical significance, according to a medical report. A complete summary of participants' characteristics is available in Table S1. Clinical and laboratory characteristics outside the normal referential criteria were reported as adverse events (Table S2). page 3: Pharmaceutics 2024, 16, 1385 3 of 6 1. Supplementary Methods Volunteers and Study Design The study started with 48 enrolled participants. Of these, 13 participants desisted after drug administration. Of the 35 remaining participants, 23 different adverse events were reported for some of them. The reference formulation was desvenlafaxine succinate monohydrate controlled- release coated tablet of 100 mg […]® with administration of one single-dose tablet. The volunteers were hospitalized at 7:30 p.m. and had supper before 9:30 p.m. After an overnight fast, they received (at ∼5:40 a.m.) a tablet of 100 mg desvenlafaxine succinate monohydrate with 200 mL of water. The volunt eers then fasted for 4 h, after which period a standard lunch was served. A specific high-calorie diet was administered thirty minutes before taking the medication; Lunch: 4 hours after taking the medication; Afternoon snack: 8 hours after taking the medication; Dinner: 10 hours after taking the medication. It was necessary to observe the ethical principle of non-maleficence due to the adverse event of nausea being considered very common (≥ 10%). the antiemetic ([…] - 30 mg / 100 mL saline / 30 minutes) was administered twice: the first dose immediately after administration of the study medication and a second dose 5:00 hours after administration of the study medication. At 2 h before and 6, 8 and 12 h after the dose administration, vital signs were checked. The recruitment period was 24 h, during which period, blood samples (8 mL) from a suitable antecubital vein were collected, post-dosing via an indwelling catheter, into Heparin lithium-containing tubes at 0, 1:00, 2:00, 3:00, 4:00, 5:00, 6:00, 6:15, 6:30, 6:45, 7:00, 7:15, 7:30, 7:45, 8:00, 8:20, 8:40, 9:00, 10:00, 12:00, 24:00, and 36:00, 48:00, 72.0h. The blood samples were centrifuged at ∼2,000×g for 10 min at 4°C, and the plasma was stored at - 70°C until assayed. Samples were handled under yellow light, due to the photosensitivity of the drug. Determination of Pharmacokinetic Profile by LC-MS/MS Chromatographic separations were performed in an LC-20AD analytical pump and SIL-20A HT autosampler from Shimadzu. The stationary phase employed a Luna AgilLuna Agilent Polaris 5 μm […] 50 x 2,0mm column (Phenomenex). The mobile phase consisted of a solution of 10 mM ammonium acetate with 0.1% formic acid (Phase A) and acetonitrile with 0.1% formic acid (Phase B), flowing at 0.3 mL/min in proportion (2:8). The autosampler was maintained at 22°C, with an injection volume of 10 μl and 2.2- minute duration. Mass spectrometry was conducted on a Quattro Micro mass spectrometer from Micromass, equipped with an electrospray ionization (ESI) source. […]
# [9] = test system: H1-histaminergic receptors; design: method as in PMID 20694066; details: cited from earlier work
# [10] = 35 healthy volunteers, single oral 100 mg Pristiq, plasma
# [11] = 35 participants, single 100 mg dose
smiles,measurement,setting,value
"CN(C)CC(c1ccc(O)cc1)C1(O)CCCCC1 (stereo not shown) [desvenlafaxine, O-desmethylvenlafaxine]",blood cholesterol and triglyceride levels,[1],can increase
same,participants with increased blood pressure,[1]; five participants of a clinical study,10%
same,systolic and diastolic blood pressure change,[1]; short-term desvenlafaxine treatment,small but statistically significant increases
same,frequency of the adverse event nausea (very common),"[1]; stated as known frequency, no reference given",≥ 10%
same,volume of distribution,[2]; after intravenous administration,3.4 L/kg
same,excreted as the glucuronide metabolite,[2],~ 19%
same,"excreted as the oxidative metabolite (N,O-didesmethylvenlafaxine)",[2],< 5%
same,excreted unchanged,[2],~ 45%
same,mean half-life,[2],approximately 11 h
same,bioavailability,[2]; oral intake,80%
same,time to maximum plasma concentrations (Cmax),[2]; oral intake,7.5 h
same,effect on muscarinic–cholinergic receptors,[3],does not significantly affect
same,plasma protein binding,[4],30%
same,effect on α1-adrenergic receptors,[5],does not significantly affect
same,inhibition of monoamine oxidase,[6],nor does it inhibit
same,"AUC 0-t, Maximum",[7]; [10],"10,338.49 h*ng/mL"
same,"AUC 0-t, Minimum",[7]; [10],2711.68 ng·h/mL
same,"Cmax, Maximum",[7]; [10],469.15 ng/mL
same,"Cmax, Minimum",[7]; [10],123.16 ng/mL
same,"Kel, Maximum",[7]; [10],0.11 h⁻¹
same,"Kel, Minimum",[7]; [10],0.06 h⁻¹
same,"T ½, Maximum",[7]; [10],12.00 h
same,"T ½, Minimum",[7]; [10],6.63 h
same,"Tmax, Maximum",[7]; [10],12.00 h
same,"Tmax, Minimum",[7]; [10],4.00 h
same,AUC(0-t),"[7]; human, plasma, po, 100 mg, 35 healthy volunteers, single oral 100 mg Pristiq, plasma, read-out: AUC 0-t, Mean",6050 ng·h/mL
same,AUC(0-t),"[7]; human, plasma, po, 100 mg, 35 healthy volunteers, single oral 100 mg Pristiq, plasma, read-out: AUC 0-t, Median",5780 ng·h/mL
same,Cmax,"[7]; human, plasma, po, 100 mg, 35 healthy volunteers, single oral 100 mg Pristiq, plasma, read-out: Cmax, Mean",290 ng/mL
same,Cmax,"[7]; human, plasma, po, 100 mg, 35 healthy volunteers, single oral 100 mg Pristiq, plasma, read-out: Cmax, Median",276 ng/mL
same,k el,"[7]; human, plasma, po, 100 mg, 35 healthy volunteers, single oral 100 mg Pristiq, plasma, read-out: Kel, Mean (converted)",2.22e-05 s⁻¹
same,k el,"[7]; human, plasma, po, 100 mg, 35 healthy volunteers, single oral 100 mg Pristiq, plasma, read-out: Kel, Median (converted)",1.94e-05 s⁻¹
same,half-life,"[7]; human, plasma, po, 100 mg, 35 healthy volunteers, single oral 100 mg Pristiq, plasma, read-out: T ½, Mean (converted)",9.43 h
same,half-life,"[7]; human, plasma, po, 100 mg, 35 healthy volunteers, single oral 100 mg Pristiq, plasma, read-out: T ½, Median (converted)",9.35 h
same,Tmax,"[7]; human, plasma, po, 100 mg, 35 healthy volunteers, single oral 100 mg Pristiq, plasma, read-out: Tmax, Mean",7.4 h
same,Tmax,"[7]; human, plasma, po, 100 mg, 35 healthy volunteers, single oral 100 mg Pristiq, plasma, read-out: Tmax, Median",7.5 h
same,k el,"[7]; human, plasma, po, 100 mg, individual participants, single oral 100 mg Pristiq, read-out: Kel (converted)",1.94e-05 s⁻¹
same,half-life,"[7]; human, plasma, po, 100 mg, individual participants, single oral 100 mg Pristiq, read-out: T1/2 (converted)",10.1 h
same,Tmax,"[7]; individual participants P1-P35, single oral 100 mg Pristiq",6.50 h and 8.67 h and 6.25 h and 4.00 h and 6.00 h and 8.33 h and 6.75 h and 7.00 h and 10.00 h and 5.00 h and 7.75 h and 12.00 h and 9.00 h
same,"Alanine Aminotransferase Increased, events count",[8]; [11],3
same,"Altered Erythrogram, events count",[8]; [11],1
same,"Altered Leukogram, events count",[8]; [11],3
same,"Anxiety, events count",[8]; [11],1
same,"Aspartate Transaminase Increased, events count",[8]; [11],5
same,"Cephalea, events count",[8]; [11],3
same,"Diarrhea, events count",[8]; [11],1
same,"General malaise, events count",[8]; [11],6
same,"Incresead triglycerides, events count",[8]; [11],2
same,"Leukocyturia, events count",[8]; [11],2
same,"Nausea, events count",[8]; [11],5
same,"Syncope, events count",[8]; [11],1
same,"Total Cholesterol Increased, events count",[8]; [11],1
same,"Vomiting, events count",[8]; [11],6
same,"Alanine Aminotransferase Increased, intensity","[8]; human, in vivo",Mild
same,"Altered Erythrogram, intensity","[8]; human, in vivo",Mild
same,"Altered Leukogram, intensity","[8]; human, in vivo",Mild
same,"Anxiety, intensity","[8]; human, in vivo",Mild
same,"Aspartate Transaminase Increased, intensity","[8]; human, in vivo",Mild
same,"Cephalea, intensity","[8]; human, in vivo",Mild
same,"Diarrhea, intensity","[8]; human, in vivo",Mild
same,"General malaise, intensity","[8]; human, in vivo",Mild
same,"Incresead triglycerides, intensity","[8]; human, in vivo",Mild
same,"Leukocyturia, intensity","[8]; human, in vivo",Mild
same,"Nausea, intensity","[8]; human, in vivo",Mild
same,"Syncope, intensity","[8]; human, in vivo",Mild
same,"Total Cholesterol Increased, intensity","[8]; human, in vivo",Mild
same,"Vomiting, intensity","[8]; human, in vivo",Mild
same,effect on H1-histaminergic receptors,[9],does not significantly affect
